pEC50: −log10 of the molar value. Values joined by “and” are separate entries in the source; they are usually repeats but may differ in a detail not shown here. Equal entries are not always repeated.
Experiments:
[1] = system: acute myeloid leukemia cell line SH2; test: Viability assay (ATP content, CellTiter-Glo), SH2; assay type: cell-based; conditions: 24 h
Method: (§1) In the following experiment the possible therapeutic window for NO-ASA derivatives was investigated. […] The melanoma cell line MelJuso, the colon carcinoma cell line SW480, the small cell lung cancer cell line HCC44, the ovarian adenocarcinoma cell line COLO704 and the acute myeloid leukemia cell line SH2 were treated with concentrations of p-NO-ASA and B9, B12 and B13 in a range between 0.01 μM and 100 μM for 24 h, followed by addition of luminogenic CellTiter-Glo® reagent.
(§2) Table accompanying Example 5. Overview of the EC50 values of cell survival analyzed by ATP content and Annexin V/PI assay. n.t.; not tested

[2] = system: Primary CLL cells; test: AnnexinV/PI assay on primary CLL cells; assay type: cell-based, human
Method: PBMCs or CLL cells (5*10^6 cells/ml) were incubated for 24 h with different compounds at concentrations from 0.01 to 100 μM. Cell survival was normalized to DMSO control [vehicle]. See Example 1.
Primary CLL or peripheral blood mononuclear cells of healthy donors (5*10^6/ml) were incubated for 24 h with different compounds according to the invention and NO-ASA as a control. The compounds were added in different concentrations, in particular in concentrations from 0.01-100 μM. Cell survival was assessed by AnnexinV/PI assay (Kit commercially available, e.g. by Biotium Inc, USA; or Phoenix Flow Systems, US), the results were normalized to DMSO control [vehicle] and dose response curves were calculated using a non-linear regression model.

[3] = system: caspases 3 and 7; test: caspase-3/7 assay in CLL cells; assay type: cell-based; conditions: Homo sapiens, CLL cell, 6 h, 0.01-20 μM, luminogenic caspase-3/7-substrate, read-out: activation of caspases 3 and 7, EC50
Excerpt: FIG. 8 depicts the involvement of caspase-mediated apoptosis in CLL cells upon treatment with p-NO-ASA, B9, B12 and B13. Representative blots of 3 independent experiments are shown. Untreated and DMSO (1%) treated cells served as control. beta-actin=loading control (FIG. 8A). para-NO-ASA and B9 induced a concentration-dependent increase in caspase-3/7-activation (FIG. 8B).
To determine whether the toxicity on CLL cells is due to caspase-mediated apoptosis, the cleavage of PARP (Poly(ADP-ribose)-Polymerase 1) and XIAP (X-linked inhibitor of apoptosis) was analyzed by immunoblot. CLL cells were cultured alone, with 1% DMSO or with EC50 of p-NO-ASA, meta-NO-ASA, B9, B12 and B13 for 24 h followed by protein lysation and western blot analysis using antibodies to detect prognostic apoptotic proteins (XIAP, PARP). […] All compounds tested induced PARP and XIAP cleavage (FIG. 8A). Further a caspase-3/7 assay was carried out. CLL cells were incubated with para-NO-ASA and B9 in different concentrations ranging from 0.01 μM to 20 μM for 6 h followed by addition of luminogenic caspase-3/7-substrate. This indicates the reduction of the survival of CLL cells upon treatment with p-NO-ASA and B9 due to the induction of caspase-mediated apoptosis.

[4] = system: acute myeloid leukemia cell line SH2; test: Annexin V/PI assay, SH2; assay type: cell-based; conditions: 24 h
[5] = system: JVM3 cells (human chronic B cell leukemia cell line); test: CLL xenograft mouse model (JVM3 cells subcutaneously in SCID beige mice); assay type: in vivo
Method: Treatment with B9 leads to significant tumor inhibition compared to vehicle control (p=0.015) after nine days with increasing significance up to day 19 of treatment (p=0.0003). IRmax value of 65% for B9 over vehicle control was determined. *=p≤0.05, **=p≤0.01, ***=p≤0.001 calculated by unpaired two-tailed students test, †=death, IR=Inhibition ratio.
Due to its favorable characteristics B9 was chosen for in vivo testing in a CLL xenograft mouse model. JVM3 cells (human chronic B cell leukemia cell line) were injected subcuntaneously into the flank of immunincompetent mice. The developing solid tumor was treated with intraperitoneal injections of 8 mg/kg of compound B9 or sesame oil (vehicle) every other day (see FIG. 4).
1*10^7 JVM3 cells were injected subcutaneously in SCID beige mice (CB17.Cg-Prkdc^scidLyst^bg-J/Crl). Tumors were measured every other day by caliper and the tumor volume was calculated V=(Length*(0.5*Width^2)). Mice carrying a tumor of more than 50 mm^3 were treated every other day with either sesame oil (vehicle control) or with 8 mg/kg B9 solved in sesame oil via intraperitoneal injections. The abortion criteria given by the GV-SOLAS for tumor bearing mice were applied. p-values were calculated using unpaired two-tailed Students test.

[6] = system: CLL cells without a TP53 mutation; test: FACS analysis of treated CLL cells without TP53 mutation; assay type: cell-based, human; conditions: 24 h, 0.01-100 μM, FIG. 6
Method: Isolated, primary CLL cells were treated for 24 h with the EC50 of the different compounds and the ATP-content was measured by flow cytometry. For each used compound the order of mean EC50 concentrations in the bar chart is from left to right as following: EC50 CLL cells TP53 unmut (unmutated=without mutation), EC50 CLL cells TP53 mut (mutated=with mutation).
Further, the derivatives B9, B12 and B13 were tested in comparison to para-NO-ASA on CLL cells which harbour a TP53 mutation. The patient subgroup with a TP53 disruption is characterized by a considerable dismal prognosis. CLL cells of patients with and without the TP53 mutation were treated with five different concentrations (0.01, 0.1, 1, 10, 100 μM) of para-NO-ASA, B9, B12 and B13 for 24 h.

[7] = system: several cancer cell lines; test: Apoptosis (Annexin V/PI) assay, panel of cancer cell lines; assay type: cell-based; conditions: range over the cancer cell lines, 24 h; read-out: concentrations inducing apoptosis in different diseases (apoptosis array)
[8] = system: small cell lung cancer cell line HCC44; test: Viability assay (ATP content, CellTiter-Glo), HCC44; assay type: cell-based; conditions: Homo sapiens, HCC44, 24 h
Method: as §1, §2

[9] = system: MEC-1; test: CellTiter-Glo ATP assay, MEC-1 cell line; assay type: cell-based; conditions: Homo sapiens, MEC1; 24 h, CellTiter-Glo
Method: Several cell lines (n=5) were treated with different concentrations of p-NO-ASA, B9, B12 and B13 ranging between 0.01 μM and 1000 μM for 24 hours followed by addition of luminogenic CellTiter-Glo®-reagent. […] For each cell line the order of used compound in the bar chart is from left to right as following: p-NO-ASA, B9, B12, B13.
Treatment success in CLL may depend on cytogenetic and molecular parameters as for instance del13q or TP53 gene disruption. Therefore, the NO-ASA derivatives were examined on (chronic) B cell lymphoma cell lines with different geno- and phenotypes (JVM3, EHEB, U2932, MEC-1, GRANTA-519). The cells were treated with concentrations between 0.01 and 1000 μM for 24 h followed by the addition of luminogenic CellTiter-Glo® reagent.

[10] = mice, 8 mg/kg i.p. every other day

Compound: O=C(Oc1ccc(CO[N+](=O)[O-])cc1)c1ccccc1 [B9, 4-((nitrooxy)methyl)phenyl benzoate]
- pEC50 [1]: 6.80
- selectivity for CLL cells compared to PBMCs ([2]; FIG. 3, sensitivity of CLL cells vs PBMCs, 24 h): selective for CLL cells
- pEC50 ([2]; Homo sapiens, CLL cell, 24 h incubation, 0.01-100 μM, 5*10^6 cells/ml, normalized to DMSO control, read-out: AnnexinV/PI assay EC50 Primary CLL): 5.73
- pEC50 [3]: 6.64
- pEC50 [4]: 5.71
- Inhibition ratio of tumor growth (IR, IRmax) over vehicle control ([5]; 8 mg/kg i.p. every other day in sesame oil, highest at day 17): 65.33% and 65%
- tumor growth ([5]; 8 mg/kg i.p. every other day vs sesame oil vehicle): significant reduction in tumor growth
- tumor volume ([5]; Day 9 of treatment, 8 mg/kg i.p. every other day): 82.97 mm^3
- bodyweight [5, 10]: A reduction of bodyweight was not observed
- severe side effects [5, 10]: Severe side effects were not observed
- mobility after treatment ([5]; mice, 8 mg/kg i.p. every other day, drinking and feeding normally): slightly reduced mobility for 15 to 30 min
- effect on CLL cells without a TP53 mutation [6]: great effect
- pEC50 [7]: 5.05 to 6.00
- pEC50 [8]: 5.61
- pEC50 [9]: 5.18
